Blank lines part the entries; values can stand above or below the compound they belong to.
How the values were obtained:
[1] = test system: naïve rats; assay: von Frey mechanical allodynia assay in naïve rats; format: in vivo, Sprague-Dawley rats; conditions: methyl esters, 1 μg intraplantar, FIG. 6A
Procedure: Male Sprague-Dawley rats weighing approximately 250-300 grams were obtained from Charles River Laboratories. On the day of the test, rats were brought to the testing apparatus and allowed to acclimate. The apparatus is a raised metal mesh platform with clear acrylic chambers to enclose rats but allow them to move freely. After 30 minutes the rats were tested with a von Frey aesthesiometer for their non-treated baseline withdrawal thresholds using a rigid tip on the plantar surface of the rat hind paw though the mesh floor. The scores are grams of force applied to the hind paw required to elicit a withdrawal. The pretreatment baseline score was considered the pain-free baseline (BL) and was assigned 100% for further response calculations.
For the pain assay, 20-HETE methyl ester, 20-HEPE methyl ester, or 22-HDoHE methyl ester, formulated in 10% EtOH in saline, were injected intraplantar in naïve rats. Withdrawal thresholds were measured at 15, 30, 60, 90, 120 and 150 minutes post injection. Reported scores are calculated as a percent of the pretreatment baseline score with an average of 6 rats (3 trials per rat) with SEM for the group.
The methyl esters compounds of 20-HETE, 20-HEPE and 22-HDoHE were tested for their ability to induce mechanical allodynia in vivo. For the assay, naïve rats were injected intraplantar with 1 μg of each ester and tested with an electronic von Frey aesthesiometer.

[2] = target: T1, ovine COX-1 (Ovis aries, UniProt P05979); assay: COX Fluorescent Inhibitor Screening Assay, COX-1; format: biochemical; conditions: read-out: % inhibition at 100 μM COX-1, triplicate
T1 construct: purchased Cayman Chemical 700100
T1 sequence (P05979 25-600): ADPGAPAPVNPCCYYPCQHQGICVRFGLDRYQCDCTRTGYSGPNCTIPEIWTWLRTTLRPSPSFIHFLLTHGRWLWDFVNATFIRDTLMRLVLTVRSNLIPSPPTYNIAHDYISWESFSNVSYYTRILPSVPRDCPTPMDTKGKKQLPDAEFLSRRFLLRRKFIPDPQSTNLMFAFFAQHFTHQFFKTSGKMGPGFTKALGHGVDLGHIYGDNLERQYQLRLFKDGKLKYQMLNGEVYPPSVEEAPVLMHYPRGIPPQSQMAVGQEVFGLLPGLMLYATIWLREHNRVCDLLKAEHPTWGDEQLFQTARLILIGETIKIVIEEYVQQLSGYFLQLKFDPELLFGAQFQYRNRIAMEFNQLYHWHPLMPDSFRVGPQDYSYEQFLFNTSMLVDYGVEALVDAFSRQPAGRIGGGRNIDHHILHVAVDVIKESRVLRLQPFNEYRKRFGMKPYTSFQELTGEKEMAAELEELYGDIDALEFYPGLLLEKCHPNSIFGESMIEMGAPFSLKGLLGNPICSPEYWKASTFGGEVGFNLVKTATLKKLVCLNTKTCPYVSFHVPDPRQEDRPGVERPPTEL
Procedure: (§1) Briefly, to a series of supplied reaction buffer solutions (150 μl, 100 mM Tris-HCl, pH 8.0) with either COX-1 or COX-2 (10 μl) enzyme in the presence of Heme (10 μl) and fluorometric substrate (10 μl) were added 10 μl of 100 μM concentration of the test compound solutions. The reactions were initiated by adding 10 μl of ARA solution and then incubated for two minutes at room temperature. Percent inhibition was calculated by comparison from the 100% initial activity sample value (no inhibitor).

[3] = target: T2, mTRPV1 (Mus musculus, UniProt Q704Y3); assay: calcium influx assay in HEK293 cells heterologously expressing mTRPV1; format: cell-based; conditions: for concentration that produced significant Ca2+ influx: HEK293 cells expressing mTRPV1, fluo-4, FIG. 4; for TRPV1 channel activation: at low doses
T2 construct: GFP; expressed in transfected cells; host or cells: HEK-293 (transient transfection; plasmid a gift from Jie Zheng, UC Davis)
Procedure: The mTRPV1 plasmid that contains a GFP tag was a generous gift from Professor Jie Zheng at University of California, Davis. The HEK-293 cells were cultured in a poly-D-lysine coated T75 dish at an initial density of 4×10^5 cells/dish and maintained in culture medium (DMEM+10% FBS+100 units/ml peniclillin, 0.1 mg/ml streptomycine) in an incubator at 37° C. with 5% CO2 and 95% humidity. At 50% confluence, the HEK-293 cells were transfected with 10 μg of mTRPV1 plasmid using Lipofectamine 2000 (Invitrogen Corporation, Carlsbad, Calif., USA) in antibiotic—as well as serum-free culture medium. After 6 hour incubation, the serum-free medium was replaced with normal culture medium and the cells were cultured for another 48 hours. The transfection efficiency was determined by examined the GFP expression as well as the Ca^2+ response after exposure to capsaicin.
The HEK-293 cells transiently transfected mTRPV1 were planted onto poly-D-lysine (Sigma-Aldrich, St. Louis, Mo., USA) coated black-well, clear-bottom, 96-well plates (Corning, Coring, N.Y., USA) at an initial density of 40,000/well. The cells were then cultured in DMEM medium for 18-24 hours as described previously (Ref. 38). Briefly, the growth medium was removed and replaced with dye loading buffer (100 μl/well) containing 4 μM fluo-4 and 0.5 mg/ml BSA in Locke's buffer (in mM: 8.6 HEPES, 5.6 KCl, 154 NaCl, 5.6 Glucose, 1.0 MgCl2, 2.3 CaCl2), 0.0001 glycine, pH 7.4). After 1 hour incubation in dye loading buffer, cells were washed four times in fresh Locke's buffer and transferred to the plate chamber of FLIPR^TETRA (Molecular Devices, Sunnyvale, Calif., USA). The final volume of Locke's buffer in each well was 150 μl. The cells were excited at 488 nm and Ca^2+ bound fluo-4 emission at 535 nm was recorded. Fluorescence readings were taken every 1 second for 120 s to establish the baseline. Different concentrations (4×) of compounds were added to the cells from a compound plate in a volume of 50 μl at a rate of 30 μl/s using a programmable robotic system. The fluorescence signals were recorded for an additional 380 seconds. All the experiments were performed at room temperature. The Ca^2+ data were represented as Fluo-4 fluorescence units (F/Fo). For quantifying the Ca^2+ response, the area under the curve (AUC) was used. Graphing and statistical analyses were performed using GraphPad Prism software (GraphPad Software Inc., San Diego, Calif.). Statistical significance was determined by an ANOVA and, where appropriate, a Dunnett's multiple comparison test and p values below 0.05 was considered statistically significant.
The influence of 20-HETE, 20-HEPE, and 22-HDoHe on mTRPV1 was measured in HEK293 cells heterologously expressed mTRPV1 using calcium influx assay. […] The discrepancy between previous study and current study is likely due to the fact that the mTRPV1 was used in the current study, while the hTRPV1 was used in the previous study.

[4] = target: T3, human COX-2 (Homo sapiens, UniProt P35354); assay: COX Fluorescent Inhibitor Screening Assay, COX-2; format: biochemical; conditions: for inhibition at 100 µM: read-out: % inhibition at 100 μM COX-2, triplicate; for COX-2 activity changes: up to 100 μM concentrations
T3 construct: purchased Cayman Chemical 700100
T3 sequence (P35354 18-604): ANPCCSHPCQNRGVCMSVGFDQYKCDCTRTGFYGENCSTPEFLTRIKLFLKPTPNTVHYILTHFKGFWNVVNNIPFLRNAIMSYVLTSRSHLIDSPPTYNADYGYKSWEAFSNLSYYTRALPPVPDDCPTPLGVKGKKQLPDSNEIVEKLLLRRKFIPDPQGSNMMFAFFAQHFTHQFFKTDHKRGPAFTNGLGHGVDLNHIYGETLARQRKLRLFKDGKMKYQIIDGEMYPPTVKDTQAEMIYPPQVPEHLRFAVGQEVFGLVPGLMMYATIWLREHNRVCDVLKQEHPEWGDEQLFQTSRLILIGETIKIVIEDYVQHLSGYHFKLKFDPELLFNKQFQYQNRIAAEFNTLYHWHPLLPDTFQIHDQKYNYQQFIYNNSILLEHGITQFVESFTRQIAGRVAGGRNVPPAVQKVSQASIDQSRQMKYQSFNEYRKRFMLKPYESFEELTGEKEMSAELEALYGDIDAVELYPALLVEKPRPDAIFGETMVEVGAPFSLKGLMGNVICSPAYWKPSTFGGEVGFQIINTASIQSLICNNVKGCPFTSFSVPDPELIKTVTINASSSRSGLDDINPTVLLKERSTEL
Procedure: as §1

[5] = test system: human dermal lymphatic endothelial cells (HMVEC-dLy); assay: VEGF-C-induced tube formation; format: cell-based; conditions: dose-dependent manner, FIG. 10
Procedure: The effect of 22-HDoHE on lymphangiogenesis was evaluated using a vascular endothelial growth factor-C (VEGF-C)-induced tube formation in human dermal lymphatic endothelial cells (HMVEC-dLy).

[6] = test system: HMVEC-dLy; assay: complete medium-induced HMVEC-dLy migration, Boyden chamber assay; format: cell-based, human; conditions: FIG. 11
[7] = test system: VEGF-induced angiogenesis; assay: Matrigel plug angiogenesis assay; format: in vivo; conditions: co-addition in Matrigel with 100 ng VEGF, C57BL/6 mice
Procedure: FIG. 7A is a simplified scheme of the animal experiment: Matrigel containing VEGF (angiogenesis inducer) and 22-HDoHE or vehicle were injected into C57BL/6 mice, after 4-7 days of treatment, the Matrigel plugs were dissected and subjected to angiogenesis analysis.
Angiogenesis, the process of formation of new blood vessels from pre-existing vessels, has been established to be critical for multiple human diseases including cancer. Vascular endothelial growth factor (VEGF) is the most important angiogenesis inducer.

[8] = test system: human umbilical vein endothelial cells (HUVECs); assay: VEGF-induced endothelial cell migration (Boyden chamber); format: cell-based; conditions: dose range of 1-3 μM, 10 ng/mL VEGF, 6 hours
Procedure: FIG. 8 is a series of photographs showing 22-HDoHE inhibition of VEGF-induced endothelial cell migration in HUVEC cells. The cell migration assay was conducted using a standard Boyden chamber assay with 10 ng/mL VEGF as chemoattractant, and the assay time was 6 hours.
It was tested whether 22-HDoHE has direct anti-angiogenic actions in primary endothelial cells, using a VEGF-induced endothelial cell migration in human umbilical vein endothelial cells (HUVECs).

[9] = test system: B16F10 melanoma; assay: B16F10 melanoma primary tumor growth model; format: in vivo; conditions: 0.5 mg/kg/day by mini-pumps, 2-wk treatment, C57BL/6 mice
Procedure: FIG. 9 is a photograph and a bar graph showing systematic treatment of 0.5 mg/kg/day 22-HDoHE inhibited ˜50% of B16F10 melanoma growth in C57BL/6 male mice. B16F10 melanoma cells (200,000 cells per mouse) were sub-Q injected into C57BL/6 mice to induce primary tumor growth of melanoma, then the mice were treated with 22-HDoHE using mini-pumps at a dose of 0.5 mg/kg/day. After 2-wk treatment, the mice were sacrificed to dissect the tumors for analysis.
Angiogenesis has been well established to play an essential role in cancer, through providing nutrients and oxygen to the tumors tissues to promote tumor progression. The effect of 22HDoHE on primary tumor growth in mice was studied using a highly aggressive B16F10 melanoma model in C57BL/6 mice.

[10] = target: hTRPV1 (Homo sapiens, UniProt Q8NER1); conditions: 10 μM, previous study (Ref 24); cited from earlier work
Sequence of hTRPV1 (Q8NER1 whole entry): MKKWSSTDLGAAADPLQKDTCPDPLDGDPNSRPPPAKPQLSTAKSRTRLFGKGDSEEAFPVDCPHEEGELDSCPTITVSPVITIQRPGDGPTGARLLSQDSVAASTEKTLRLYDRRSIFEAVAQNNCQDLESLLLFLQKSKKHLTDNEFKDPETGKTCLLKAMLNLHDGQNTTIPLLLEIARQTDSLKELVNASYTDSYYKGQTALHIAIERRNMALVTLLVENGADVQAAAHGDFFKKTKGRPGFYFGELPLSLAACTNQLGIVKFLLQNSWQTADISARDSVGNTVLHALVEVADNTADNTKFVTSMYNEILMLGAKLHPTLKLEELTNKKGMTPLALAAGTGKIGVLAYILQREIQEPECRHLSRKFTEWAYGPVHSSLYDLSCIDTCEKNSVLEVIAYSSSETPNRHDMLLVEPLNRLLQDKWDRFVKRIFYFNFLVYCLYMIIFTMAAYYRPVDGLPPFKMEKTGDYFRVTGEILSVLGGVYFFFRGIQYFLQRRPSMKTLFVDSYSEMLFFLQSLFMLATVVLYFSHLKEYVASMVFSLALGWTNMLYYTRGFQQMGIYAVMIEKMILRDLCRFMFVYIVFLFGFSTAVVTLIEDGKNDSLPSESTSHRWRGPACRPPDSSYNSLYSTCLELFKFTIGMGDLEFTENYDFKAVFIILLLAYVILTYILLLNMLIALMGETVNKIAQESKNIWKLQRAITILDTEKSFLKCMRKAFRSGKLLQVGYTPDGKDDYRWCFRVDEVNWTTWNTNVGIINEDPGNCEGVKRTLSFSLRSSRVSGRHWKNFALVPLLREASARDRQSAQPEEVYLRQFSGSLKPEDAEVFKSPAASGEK

T2 sequence (Q704Y3 whole entry): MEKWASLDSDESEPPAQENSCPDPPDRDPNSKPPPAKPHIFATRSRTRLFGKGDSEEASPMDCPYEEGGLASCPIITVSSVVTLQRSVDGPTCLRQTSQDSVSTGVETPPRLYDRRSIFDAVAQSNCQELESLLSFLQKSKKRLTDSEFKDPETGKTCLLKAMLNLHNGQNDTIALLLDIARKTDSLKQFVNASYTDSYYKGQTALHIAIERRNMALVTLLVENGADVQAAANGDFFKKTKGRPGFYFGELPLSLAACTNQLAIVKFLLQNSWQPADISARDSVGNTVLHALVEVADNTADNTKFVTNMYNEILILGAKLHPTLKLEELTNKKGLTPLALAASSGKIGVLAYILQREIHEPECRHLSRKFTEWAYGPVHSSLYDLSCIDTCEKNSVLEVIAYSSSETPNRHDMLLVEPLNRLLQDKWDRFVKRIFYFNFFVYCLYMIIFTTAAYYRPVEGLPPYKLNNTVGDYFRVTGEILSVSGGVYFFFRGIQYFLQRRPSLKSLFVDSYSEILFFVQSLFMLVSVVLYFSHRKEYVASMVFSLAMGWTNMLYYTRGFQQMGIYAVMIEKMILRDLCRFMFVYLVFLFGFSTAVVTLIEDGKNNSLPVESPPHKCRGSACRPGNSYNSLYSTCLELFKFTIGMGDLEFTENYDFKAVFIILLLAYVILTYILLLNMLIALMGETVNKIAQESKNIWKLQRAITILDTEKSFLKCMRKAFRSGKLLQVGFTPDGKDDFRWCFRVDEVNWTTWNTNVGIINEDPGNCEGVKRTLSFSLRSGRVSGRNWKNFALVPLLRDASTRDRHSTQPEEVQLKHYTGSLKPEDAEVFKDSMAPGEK

Structure (SMILES): COC(=O)CCC/C=C\C/C=C\C/C=C\C/C=C\CCCCCO
- nociceptive (withdrawal) thresholds, von Frey [1]: decreased nociceptive thresholds acutely

Structure (SMILES): COC(=O)CCC/C=C\C/C=C\C/C=C\C/C=C\C/C=C\CCO
- nociceptive (withdrawal) thresholds, von Frey [1]: neither 20-HEPE nor 22-HDoHE induced a similar decrease in thresholds

Structure (SMILES): COC(=O)CC/C=C\C/C=C\C/C=C\C/C=C\C/C=C\C/C=C\CCO [22-HDoHE]
- nociceptive (withdrawal) thresholds, von Frey [1]: neither 20-HEPE nor 22-HDoHE induced a similar decrease in thresholds

Further lines, with some results ahead:

- inhibition at 100 µM [2]: 37.1%
- concentration that produced significant Ca2+ influx [3]: 10 µM
- TRPV1 channel activation [3]: did not activate TRPV1 channels
- inhibition at 100 µM [4]: 0%
- COX-2 activity changes ([4]; FIG. 5): No COX-2 activity changes
Structure (SMILES): O=C(O)CCC/C=C\C/C=C\C/C=C\C/C=C\C/C=C\CCO [20-HEPE, (5Z,8Z,11Z,14Z,17Z)-20-Hydroxyicosa-5,8,11,14,17-pentaenoic Acid]

- inhibition at 100 µM [2]: 38.1%
- concentration that produced significant Ca2+ influx [3]: ~3 µM
- TRPV1 channel activation [3]: did not activate TRPV1 channels
- inhibition at 100 µM [4]: 1%
- COX-2 activity changes ([4]; FIG. 5): No COX-2 activity changes
Structure (SMILES): O=C(O)CC/C=C\C/C=C\C/C=C\C/C=C\C/C=C\C/C=C\CCO [22-HDoHE, (4Z,7Z,10Z,13Z,16Z,19Z)-22-Hydroxydocosa-4,7,10,13,16,19-hexaenoic Acid]
- VEGF-C-induced tube formation in HMVEC-dLy cells [5]: significantly inhibited
- complete medium-induced HMVEC-dLy migration [6]: significantly inhibit
- VEGF-induced angiogenesis in Matrigel plugs [7]: almost abolished VEGF-induced angiogenesis
- VEGF-induced HUVECs migration [8]: significantly inhibited
- reduction of B16F10 tumor growth [9]: ~50%

- COX inhibitory activity (% inhibition), COX-2 ([4]; FIG. 5): Less than 0%
Structure (SMILES): CC/C=C\C/C=C\C/C=C\C/C=C\C/C=C\CCCC(=O)O [EPA, eicosapentaenoic acid, reference compound]

- inhibition at 100 µM [2]: 27.5%
- Ca2+ response ([3]; at the concentrations examined, FIG. 4): marginal Ca^2+ response
- inhibition at 100 µM [4]: 0%
- COX-2 activity changes ([4]; FIG. 5): No COX-2 activity changes
Structure (SMILES): O=C(O)CCC/C=C\C/C=C\C/C=C\C/C=C\CCCCCO [20-HETE, (5Z,8Z,11Z,14Z)-20-Hydroxyicosa-5,8,11,14-tetraenoic Acid]
- mTRPV1 activation ([3]; at or below concentration of 10 uM): does not appear to be an mTRPV1 activator
- hTRPV1 activation [10]: activates hTRPV1

Source: patent publication US10689595B2 (THE REGENTS OF THE UNIVERSITY OF CALIFORNIA, priority 2016, dated 2020)
